Here are results for 19 molecules from patent US20090069315A1, “Use of Pyrazolo(1,5A)Pyrimidin-7-YL Amine Derivatives in the Treatment of Neurological Disorders” (priority 2006, published 2009).

In data set [1] the target is T1, EphA4 (Mus musculus, UniProt Q03137). In words: Proof of mechanism: EphA4 phosphorylation in mouse brain after dosing. The conditions noted are these: male NMRI mice, 10 mg/kg; for crossing of the blood brain barrier: inferred from block of brain EphA4 phosphorylation; for EphA4 phosphorylation in vivo in mouse brain: i.v., sacrificed 25 minutes or 1 hour after dosing, FIG. 4. Also on record: from tissue; host or cells: brain of male NMRI mice. Format: in vivo. The procedure:
Animals were given an i.v dose of relevant compound and sacrificed 25 minutes or 1 hour after dosing (0.25 h or 1 h), the brains removed and subjected to EphA4 immunoprecipitation followed by a phospho-tyrosine Western blot. Four animals were used as controls and three-animals each were used per time point for each drug. From top to bottom, the compounds tested were Compound 1, Compound 7, and Compound 6.
Male NMRI mice were injected with relevant compounds at a dose of 10 mg/kg body weight and were sacrificed either 25 minutes or 1 hour following the dosing (0.25 h or 1 h shown in FIG. 4). The brains were removed and one half of each brain was weighed and homogenized in appropriate volume of lysis buffer for 30 seconds (10 seconds pulse and 10 seconds off—3 times). The homogenate was spun at 12,000 g for 30 minutes. Protein amounts were estimated for supernatants (using BCA) and equal amounts of protein for each condition were subjected to EphA4 immunoprecipitation followed by a phospho-tyrosine western blot. Four control animals were used and three experimental animals per time point were used for each of the compounds tested (Compounds 1, 2, 6, and 7)

The test system of data set [2] is astrocytes. In words: In vitro assay for astrogliosis: astrocyte scratch wound (cytokine-induced migration). The conditions noted are these: relative distance of cell migration compared to control; FIG. 3. Format: cell-based, mouse. The procedure:
The white bar represents the addition of Compound 6. The black bar represents no compounds added.
Assay Astrocytes are prepared from the cerebral cortex of neonatal C57BL/6 mice (P1-P2). Cells are maintained in Dulbecco's modified Eagle's medium with 10% FBS. 4-7 weeks old astrocytes are plated to confluence in 2 well chamber slides coated with poly-D-lysine for the scratch wound assay and serum starved. 48 hrs after serum starvation, the monolayer of astrocytes is scratched with sterile 200 μl tips and washed twice with PBS to get rid of cell debris. Conditioned medium (+/−cytokines) is added to the wounded astrocytes. The microscopic images of the scratch is captured at a magnification of 10× right after scratch and considered as time point 0.24 hrs, 48 hrs or 72 hrs after scratch, the same region of scratch is imaged and fixed with methanol containing, 1 μg/ml of DAPI to monitor migration and proliferation of astrocytes.

In data set [3] the target is T1, EphA4. Description: EphA4 autophosphorylation assay in primary astrocyte cultures (EphA4 immunoprecipitation, phospho-tyrosine Western). Format: cell-based. Also on record: Primary astrocyte cultures are established from neonatal mouse cortex; endogenous in cells; host or cells: primary astrocytes from neonatal mouse cortex. Particulars: cells pre-treated with 100 nM; FIG. 1A. The procedure: FIG. 1A, lanes and 2 represent samples from cells treated with either control IgG-Fc or with the ligand ephrinB3-Fc. […] represent samples from cells that have been pre-treated with Compound 1 (100 nM) and are then stimulated with IgG-Fc or ephrinB3-Fc in the combined presence of the inhibitor (Compound I)(lanes 3, 4) or in its absence (lanes 5, 6). FIG. 1B, lanes 1 and 2 show EphA4 phosphorylation in control (untreated) and ephrinB3-Fc stimulated cells following serum starvation. All other lanes represent samples from cells stimulated with ephrinB3-Fc in the presence of varying concentrations (as indicated) of tested Eph inhibitors.
Primary astrocyte cultures are established from neonatal mouse cortex and purified so as to get about 95-98 pure astrocyte cultures. […] Cells are lysed, and the lysates subjected to EphA4 immunoprecipitation and subsequently analysed on Westerns for level of receptor phosphorylation using a phospho-tyrosine antibody.

Data set [4] concerns embryonic cortical neurons. Description: In vitro assay for neurite outgrowth/axon regeneration: E16 cortical neurons on astrocyte monolayers. Format: cell-based. The conditions noted are these: 100 nM; immunofluorescence images, FIG. 2A. As to the method: This assay is used to assess neurite outgrowth inhibition of embryonic cortical neurons by Eph receptors expressed on astrocytes or neurite outgrowth inhibition of post-natal cortical neurons by ephrin ligand present in myelin. E16 (embryonic day 16) cortical neurons are plated onto confluent astrocyte monolayers plated in 4-well chamber slides. Pharmacological inhibitors, are added to the medium and the length of longest neurite from each neuron is measured under each condition (FIG. 2A depicts an example of neurons plated in the presence of Compound 1 and visualized with the neuronal marker, Tuj-1) and compared to average neurite length on astrocytes in the absence of any pharmacological agents. FIG. 2B depicts the quantitation of neurite outgrowth effects observed with Compound 6 and Compound 7 (all tested at 100 nM concentration) in cortical cultures plated on astrocytes.

T1 sequence (Q03137 20-986): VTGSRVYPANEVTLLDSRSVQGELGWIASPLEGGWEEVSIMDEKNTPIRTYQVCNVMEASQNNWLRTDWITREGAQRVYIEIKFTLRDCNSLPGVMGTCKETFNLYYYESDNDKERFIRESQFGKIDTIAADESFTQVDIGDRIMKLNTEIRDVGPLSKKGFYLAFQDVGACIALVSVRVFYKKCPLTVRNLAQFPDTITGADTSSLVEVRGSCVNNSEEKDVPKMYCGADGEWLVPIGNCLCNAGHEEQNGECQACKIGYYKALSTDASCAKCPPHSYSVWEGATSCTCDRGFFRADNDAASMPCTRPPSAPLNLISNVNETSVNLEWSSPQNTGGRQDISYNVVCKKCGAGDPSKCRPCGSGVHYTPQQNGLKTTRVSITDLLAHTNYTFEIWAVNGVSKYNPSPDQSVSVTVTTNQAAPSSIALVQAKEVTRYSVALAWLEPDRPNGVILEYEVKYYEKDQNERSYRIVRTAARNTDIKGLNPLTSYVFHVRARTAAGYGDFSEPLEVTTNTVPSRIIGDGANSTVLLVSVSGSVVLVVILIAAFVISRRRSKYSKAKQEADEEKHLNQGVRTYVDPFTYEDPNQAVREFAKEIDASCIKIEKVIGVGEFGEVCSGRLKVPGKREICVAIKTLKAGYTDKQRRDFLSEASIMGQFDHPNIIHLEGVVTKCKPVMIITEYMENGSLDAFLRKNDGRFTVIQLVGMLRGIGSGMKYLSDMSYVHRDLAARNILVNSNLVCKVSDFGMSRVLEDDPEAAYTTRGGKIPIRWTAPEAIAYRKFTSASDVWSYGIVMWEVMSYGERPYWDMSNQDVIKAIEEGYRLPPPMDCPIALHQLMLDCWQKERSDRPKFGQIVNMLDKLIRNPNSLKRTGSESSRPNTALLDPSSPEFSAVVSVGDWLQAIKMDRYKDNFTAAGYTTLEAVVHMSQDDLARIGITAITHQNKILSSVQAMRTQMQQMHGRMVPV

For the molecule `Cc1nc2c(-c3cccc(N4CCN(C5CCN(C)CC5)CC4)c3)cnn2c(N)c1-c1cccc(Cl)c1` [Compound 5, 6-(3-Chloro-phenyl)-5-methyl-3-{3-[4-(1-methyl-piperidin-4-yl)-piperazin-1-yl]-phenyl}-pyrazolo[1,5-a]pyrimidin-7-ylamine], the melting point lay within 180 to 185 °C.

`CN1CCN(c2ccc(-c3cnn4c(N)c(-c5ccccc5Cl)cnc34)cc2)CC1` [Example 84, 6-(2-Chloro-phenyl)-3-[4-(4-methyl-piperazin-1-yl)-phenyl]-pyrazolo[1,5-a]-pyrimidin-7-ylamine]: the melting point fell in the range of 197 to 200 °C. Consider `Cc1nc2c(-c3cccc(N4CCN(CCO)CC4)c3)cnn2c(N)c1-c1ccc(F)c(F)c1` [Example 108, 2-(4-{3-[7-Amino-6-(3,4-difluoro-phenyl)-5-methyl-pyrazolo[1,5-a]pyrimidin-3-yl]-phenyl}-piperazin-1-yl)-ethanol], for which the melting point lay within 172 to 174 °C.

On to `CN(C)c1ccc(-c2cnn3c(N)c(-c4ccc(NS(=O)(=O)c5cccc(Cl)c5Cl)cc4)cnc23)cc1` [Example 17, N-{4-[7-Amino-3-(4-dimethylamino-phenyl)-pyrazolo[1,5-a]pyrimidin-6-yl]-phenyl}-2,3-dichloro-benzenesulfonamide], for which the melting point was 143 to 146 °C. Regarding `Cc1nc2c(-c3cccc(N4CCN(CCO)CC4)c3)cnn2c(N)c1-c1ccc(F)c(Cl)c1` [Compound 4, 2-(4-{3-[7-Amino-6-(3-chloro-4-fluoro-phenyl)-5-methyl-pyrazolo[1,5-a]pyrimidin-3-yl]-phenyl}-piperazin-1-yl)-ethanol], the melting point lay within 104 to 107 °C. For `COc1ccc(-c2cnn3c(N)c(-c4ccc(F)c(Cl)c4)c(C)nc23)cc1` [Example 102, 6-(3-Chloro-4-fluoro-phenyl)-3-(4-methoxy-phenyl)-5-methyl-pyrazolo[1,5-a]-pyrimidin-7-ylamine], the melting point was in the range of 224 to 227 °C. Regarding `Cc1nc2c(-c3ccc(OCCN(C)C)cc3)cnn2c(N)c1-c1cccc(Cl)c1` [Compound 7, 6-(3-Chloro-phenyl)-3-[4-(2-dimethylamino-ethoxy)-phenyl]-5-methyl-1-pyrazolo[1,5-a]pyrimidin-7-ylamine], in data set [1], the “crossing of the blood brain barrier” value is “cross the blood brain barrier” and the “EphA4 phosphorylation in vivo in mouse brain” value (shortened to “EphA4 phosphorylation in vivo”) is listed as “effectively block phosphorylation of EphA4 receptor in vivo”. The molecule `COc1ccc(-c2cnn3c(N)c(-c4cccc(Cl)c4)c(C)nc23)cc1OC` [Compound 3, 6-(3-Chloro-phenyl)-3-(3,4-dimethoxy-phenyl)-5-methyl-pyrazolo[1,5-a]pyrimidin-7-ylamine] returned a melting point of 223 to 226 °C.

Take `COc1ccc(-c2cnn3c(N)c(-c4ccc(F)cc4)c(C)nc23)cc1` [Example 103, 6-(4-Fluoro-phenyl)-3-(4-methoxy-phenyl)-5-methyl-pyrazolo[1,5-a]pyrimidin-7-ylamine]: the melting point was in the range of 243 to 244 °C. In turn, `CN(C)c1ccc(-c2cnn3c(N)c(-c4ccc(OS(=O)(=O)c5ccc(Cl)cc5)cc4)cnc23)cc1` [Example 18, 4-Chloro-benzenesulfonic acid 4-[7-amino-3-(4-dimethylamino-phenyl)-pyrazolo[1,5-a]pyrimidin-6-yl]-phenyl ester] gave a melting point of 186 to 191.88 °C. In the case of `COc1ccc(-c2cnn3c(N)c(-c4cccc(Cl)c4)c(CN4CCNCC4)nc23)cc1OC` [Compound 6, 6-(3-Chloro-7-phenyl)-3-(3,4-dimethoxy-phenyl)-5-piperazin-1-ylmethyl-pyrazolo[1,5-a]pyrimidin-7-ylamine], in data set [2], the “astrocyte migration induced by cytokines (TGF-α, LIF, and IFN)” value is “block astrocyte migration”. In data set [1], the “crossing of the blood brain barrier” value was “cross the blood brain barrier” and the “EphA4 phosphorylation in vivo” value is reported as “effectively block phosphorylation of EphA4 receptor in vivo”. Turning to `COc1ccc(-c2cnn3c(N)c(-c4cccc(Cl)c4)c(C)nc23)cc1` [Example 95, 6-(3-Chloro-phenyl)-3-(4-methoxy-phenyl)-5-methyl-pyrazolo[1,5-a]pyrimidin-7-ylamine], the melting point was in the range of 171 to 172 °C. Molecule `COc1ccc(-c2cnn3c(N)c(-c4cccc(Cl)c4)c(CF)nc23)cc1OC` [Example 99, 6-(3-Chloro-phenyl)-3-(3,4-dimethoxy-phenyl)-5-fluoromethyl-pyrazolo[1,5-a]pyrimidin-7-ylamine] registered a melting point of 228 to 230 °C. For `Cc1nc2c(-c3cccc(N4CCN(C)CC4)c3)cnn2c(N)c1-c1cccc(Br)c1` [Example 91, 6-(3-Bromo-phenyl)-5-methyl-3-[3-(4-methyl-piperazin-1-yl)-phenyl]-pyrazol-o[1,5-a]pyrimidin-7-ylamine], the melting point fell in the range of 107 to 113 °C. Molecule `CCN(CC)C1CCN(c2cccc(-c3cnn4c(N)c(-c5ccc(F)cc5)c(C)nc34)c2)CC1` [Example 112, 3-[3-(4-Diethylamino-piperidin-1-yl)-phenyl]-6-(4-fluoro-phenyl)-5-methyl-pyrazolo[1,5-a]pyrimidin-7-ylamine] yielded a melting point of 208 to 210 °C. The molecule `CN1CCN(c2cccc(-c3cnn4c(N)c(Cc5ccccc5)cnc34)c2)CC1` [Example 98, 6-Benzyl-3-[3-(4-methyl-piperazin-1-yl)-phenyl]-pyrazolo[1,5-a]pyrimidin-7-ylamine] showed a melting point of 72 to 75 °C.

`COc1ccc(-c2cnn3c(N)c(-c4ccc(F)c(Cl)c4)c(C)nc23)cc1OC` [Example 101, 6-(3-Chloro-4-fluoro-phenyl)-3-(3,4-dimethoxy-phenyl)-5-methyl-pyrazolo[1,5-a]pyrimidin-7-ylamine] had a melting point of 235 to 238 °C. In turn, `CN1CCN(c2cccc(-c3cnn4c(N)c(-c5ccccc5Cl)cnc34)c2)CC1` [Example 85, 6-(2-Chloro-phenyl)-3-[3-(4-methyl-piperazin-1-yl)-phenyl]-pyrazolo[1,5-a]-pyrimidin-7-ylamine] returned a melting point of 200 to 203 °C. With `CCN(CC)C1CCN(c2cccc(-c3cnn4c(N)c(-c5cccc(Cl)c5)c(C)nc34)c2)CC1` [Compound 1, 6-(3-Chloro-phenyl)-3-[3-(4-diethylamino-piperidin-1-yl)-phenyl]-5-methyl-pyrazolo[1,5-a]pyrimidin-7-ylamine], the melting point was 163 to 168 °C. Besides, the “inhibition of EphA4 auto-phosphorylation (phospho-tyrosine Western blot)” value in data set [3] is “inhibition of EphA4 auto-phosphorylation”. Also, the “overcoming neurite outgrowth inhibition” value in data set [4] is reported as “able to overcome neurite outgrowth inhibition”. In data set [1], the “crossing of the blood brain barrier” value is “cross the blood brain barrier” and the “EphA4 phosphorylation in vivo” value is “effectively block phosphorylation of EphA4 receptor in vivo”.

As a reminder, the melting point is the temperature, or range, at which the solid turns liquid.
